Assay results: ChEMBL document CHEMBL1275342 (J Med Chem, 2010)

What was measured:
[1] = biological target: T1, Serine/threonine-protein kinase Nek2 (Homo sapiens, UniProt P51955)
T1 sequence (P51955 whole entry): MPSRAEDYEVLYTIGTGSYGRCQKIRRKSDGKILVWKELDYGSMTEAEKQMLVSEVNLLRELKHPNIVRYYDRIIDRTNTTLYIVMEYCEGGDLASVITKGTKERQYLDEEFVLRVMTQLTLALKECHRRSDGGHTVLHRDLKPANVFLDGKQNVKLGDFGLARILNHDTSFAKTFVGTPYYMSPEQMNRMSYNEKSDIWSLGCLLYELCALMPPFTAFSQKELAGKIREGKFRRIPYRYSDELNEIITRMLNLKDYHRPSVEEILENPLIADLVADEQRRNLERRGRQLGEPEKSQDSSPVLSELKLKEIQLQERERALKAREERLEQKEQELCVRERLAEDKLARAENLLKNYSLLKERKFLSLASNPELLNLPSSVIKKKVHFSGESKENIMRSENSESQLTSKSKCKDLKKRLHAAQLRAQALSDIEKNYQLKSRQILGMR
Description: Inhibition of NEK2 by microfluidic assay

[2] = biological target: T2, Serine/threonine-protein kinase Chk1 (Homo sapiens, UniProt O14757); experiment: Inhibition of CHK1
T2 sequence (O14757 whole entry): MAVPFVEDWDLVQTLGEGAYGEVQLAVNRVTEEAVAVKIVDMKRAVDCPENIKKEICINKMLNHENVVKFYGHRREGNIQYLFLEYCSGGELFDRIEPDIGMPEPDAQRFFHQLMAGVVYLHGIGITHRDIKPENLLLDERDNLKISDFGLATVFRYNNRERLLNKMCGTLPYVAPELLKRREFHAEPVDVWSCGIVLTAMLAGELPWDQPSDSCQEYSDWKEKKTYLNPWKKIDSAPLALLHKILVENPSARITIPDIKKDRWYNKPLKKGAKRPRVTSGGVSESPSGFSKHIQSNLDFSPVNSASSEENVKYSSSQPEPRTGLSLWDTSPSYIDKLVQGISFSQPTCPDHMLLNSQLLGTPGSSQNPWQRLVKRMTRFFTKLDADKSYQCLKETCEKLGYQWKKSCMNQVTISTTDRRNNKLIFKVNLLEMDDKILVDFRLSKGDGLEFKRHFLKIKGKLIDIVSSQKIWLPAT

[3] = biological target: T3, Serine/threonine-protein kinase Nek1 (Homo sapiens, UniProt Q96PY6); experiment: Inhibition of NEK1 after 1 hr at room temperature by caliper method
T3 sequence (Q96PY6 whole entry): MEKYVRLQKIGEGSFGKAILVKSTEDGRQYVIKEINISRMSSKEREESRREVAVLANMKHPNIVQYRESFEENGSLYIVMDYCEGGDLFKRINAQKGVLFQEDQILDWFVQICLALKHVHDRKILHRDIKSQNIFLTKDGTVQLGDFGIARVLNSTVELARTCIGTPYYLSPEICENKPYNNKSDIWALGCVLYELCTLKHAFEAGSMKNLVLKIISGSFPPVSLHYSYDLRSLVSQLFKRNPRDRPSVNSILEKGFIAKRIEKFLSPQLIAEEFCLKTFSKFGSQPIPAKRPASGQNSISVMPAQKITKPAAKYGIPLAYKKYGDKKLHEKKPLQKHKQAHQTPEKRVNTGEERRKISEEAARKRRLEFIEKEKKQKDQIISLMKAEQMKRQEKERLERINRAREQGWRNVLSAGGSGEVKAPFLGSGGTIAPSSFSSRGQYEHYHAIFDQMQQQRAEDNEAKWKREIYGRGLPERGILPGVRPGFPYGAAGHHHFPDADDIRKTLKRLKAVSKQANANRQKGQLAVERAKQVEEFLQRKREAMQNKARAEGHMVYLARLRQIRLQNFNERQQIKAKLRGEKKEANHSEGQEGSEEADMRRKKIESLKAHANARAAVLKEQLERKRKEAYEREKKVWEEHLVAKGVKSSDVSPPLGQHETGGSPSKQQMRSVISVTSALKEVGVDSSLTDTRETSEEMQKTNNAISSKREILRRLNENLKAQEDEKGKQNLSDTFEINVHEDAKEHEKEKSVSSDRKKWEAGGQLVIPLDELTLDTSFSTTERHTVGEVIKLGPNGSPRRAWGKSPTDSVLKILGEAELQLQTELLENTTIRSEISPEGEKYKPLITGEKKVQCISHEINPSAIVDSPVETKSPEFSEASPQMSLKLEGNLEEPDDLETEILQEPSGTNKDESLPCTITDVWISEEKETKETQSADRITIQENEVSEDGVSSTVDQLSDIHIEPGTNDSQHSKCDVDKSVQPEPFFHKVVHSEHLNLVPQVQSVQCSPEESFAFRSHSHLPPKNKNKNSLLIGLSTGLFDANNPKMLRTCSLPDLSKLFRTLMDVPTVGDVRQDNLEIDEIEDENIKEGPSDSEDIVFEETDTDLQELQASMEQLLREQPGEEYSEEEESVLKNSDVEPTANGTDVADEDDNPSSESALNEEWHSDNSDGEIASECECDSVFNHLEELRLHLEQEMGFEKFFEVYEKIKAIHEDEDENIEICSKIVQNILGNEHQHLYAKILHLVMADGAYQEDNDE

[4] = biological target: Serine/threonine-protein kinase PLK1 (Homo sapiens, UniProt P53350); experiment: Inhibition of PLK1 after 75 mins at room temperature by caliper method
[5] = biological target: T1, Serine/threonine-protein kinase Nek2; remark: listed apart in the source
Description: Inhibition of NEK2 assessed as inhibition of substrate phosphorylation

[6] = biological target: T1, Serine/threonine-protein kinase Nek2; remark: listed apart in the source
Description: Inhibition of NEK2 autophosphorylation after 2 hrs by DELFIA assay

Sequence of Serine/threonine-protein kinase PLK1 (P53350 whole entry): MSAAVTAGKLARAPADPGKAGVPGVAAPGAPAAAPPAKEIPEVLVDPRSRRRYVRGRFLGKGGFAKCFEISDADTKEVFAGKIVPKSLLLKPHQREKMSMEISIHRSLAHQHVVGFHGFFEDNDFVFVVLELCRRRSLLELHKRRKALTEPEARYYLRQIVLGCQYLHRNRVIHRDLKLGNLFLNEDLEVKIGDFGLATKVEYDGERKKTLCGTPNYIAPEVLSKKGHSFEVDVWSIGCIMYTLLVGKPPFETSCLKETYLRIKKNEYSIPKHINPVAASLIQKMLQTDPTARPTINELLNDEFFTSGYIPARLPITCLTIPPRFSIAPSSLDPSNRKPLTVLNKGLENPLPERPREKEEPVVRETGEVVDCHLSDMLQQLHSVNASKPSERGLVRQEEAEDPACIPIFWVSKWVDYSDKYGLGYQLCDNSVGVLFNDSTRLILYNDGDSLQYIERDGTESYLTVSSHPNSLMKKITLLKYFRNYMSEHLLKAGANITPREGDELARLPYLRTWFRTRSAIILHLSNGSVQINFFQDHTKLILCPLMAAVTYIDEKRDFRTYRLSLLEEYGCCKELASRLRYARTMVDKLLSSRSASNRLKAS

Structure (SMILES) | IC50 [1] [µM] | also measured
CCc1cc(-c2nc(-c3cc(OC)c(OC)c(OC)c3)cnc2N)ccc1C(=O)O | 26.2 | –
Nc1ncc(-c2ccsc2)nc1N1CCC(C(=O)O)CC1 | 7.2 | –
COc1cc(-c2cnc(N)c(N3CC[C@@H](C(=O)O)[C@@H](C)[C@H]3C)n2)cc(OC)c1OC | – | IC50 [2]: > 100 µM; IC50 [3]: 0.17 µM; IC50 [4]: 19.4 µM
COc1cc(-c2cnc(N)c(N3CCC(C(N)=O)CC3)n2)cc(OC)c1OC | 5.7 | –
COc1cc(-c2cnc(N)c(N3CC[C@@H](C(=O)O)[C@@H](C)C3)n2)cc(OC)c1OC | 0.39 | –
Nc1ncc(-c2ccccc2)nc1N1CCC(C(=O)O)CC1 | 7.8 | –
CCc1ccsc1-c1cnc(N)c(N2CCC(C(=O)O)CC2)n1 | 2.1 | IC50 [2]: > 100 µM; IC50 [5]: 1.9 µM; IC50 [6]: 0.72 µM; IC50 [3]: 22.5 µM; IC50 [4]: 8.5 µM
COc1cc(-c2cnc(N)c(N3CC[C@@H](C(=O)O)[C@@H](C4CC4)C3)n2)cc(OC)c1OC (racemic) | 38.3 | –
Nc1ncc(-c2cccs2)nc1N1CCC(C(=O)O)CC1 | 4.3 | –
CC[C@H]1CN(c2nc(-c3cc(OC)c(OC)c(OC)c3)cnc2N)CC[C@@H]1C(=O)O (racemic) | 11.3 | –
CCC[C@H]1CN(c2nc(-c3cc(OC)c(OC)c(OC)c3)cnc2N)CC[C@H]1C(=O)O (racemic) | 11.2 | –
COc1cc(-c2cnc(N)c(-c3ccc(C(=O)O)cc3C)n2)cc(OC)c1OC | > 50 | –
COc1ccc(-c2cnc(N)c(N3CCC(C(=O)O)CC3)n2)cc1OC | 1.9 | –
COc1cc(-c2cnc(N)c(-c3ccc(C(=O)O)cc3)n2)cc(OC)c1OC | – | IC50 [5]: 1.6 µM; IC50 [6]: 0.71 µM
COc1cc(-c2cnc(N)c(N3CCCCC3)n2)cc(OC)c1OC | > 50 | –
CCC[C@@H]1C[C@H](C(=O)O)CCN1c1nc(-c2cc(OC)c(OC)c(OC)c2)cnc1N (racemic) | 5.4 | –
COc1cc(-c2cnc(N)c(N3CCC(C(=O)O)CC3)n2)cc(OC)c1OC | – | IC50 [2]: > 100 µM; IC50 [3]: 2.6 µM; IC50 [4]: 22.6 µM

Further lines, with some results ahead:

IC50 [1] [µM] | Structure (SMILES) | also measured
1.6 | Nc1ncc(-c2sccc2C2CC2)nc1N1CCC(C(=O)O)CC1 | –
2.7 | COc1cc(-c2cnc(N)c(N3CC[C@H](C(=O)O)[C@@H](C)C3)n2)cc(OC)c1OC (racemic) | –
48.5 | Nc1nccnc1N1CCC(C(=O)O)CC1 | –
1.4 | CC[C@@H]1C[C@H](C(=O)O)CCN1c1nc(-c2cc(OC)c(OC)c(OC)c2)cnc1N (racemic) | –
0.72 | COc1cc(-c2cnc(N)c(N3CC[C@@H](C(=O)O)[C@@H](C)C3)n2)cc(OC)c1OC (racemic) | –
1.9 | COc1cc(OC)cc(-c2cnc(N)c(N3CCC(C(=O)O)CC3)n2)c1 | –
10.8 | COc1cc(-c2cnc(N)c(N3CC[C@H](C(=O)O)[C@H](C)C3)n2)cc(OC)c1OC | –
19.8 | COc1ccc(-c2cnc(N)c(N3CCC(C(=O)O)CC3)n2)cc1 | –
18.3 | COC(=O)C1CCN(c2nc(-c3cc(OC)c(OC)c(OC)c3)cnc2N)CC1 | –
1.2 | COc1cc(-c2cnc(N)c(N3CC[C@@H](C(=O)O)C[C@H]3C)n2)cc(OC)c1OC (racemic) | –
3.4 | Nc1ncc(-c2sccc2C2CCCC2)nc1N1CCC(C(=O)O)CC1 | –
5.9 | COc1cc(-c2cnc(N)c(N3CC[C@@H](C(=O)O)C[C@H]3C(C)C)n2)cc(OC)c1OC (racemic) | –
